Source: ChEMBL document CHEMBL1157845, “Structure-activity relationship of new anti-tuberculosis agents derived from oxazoline and oxazole benzyl esters” (Eur J Med Chem, 2010)
≈ marks a conversion by molar mass, not a printed value. Calls of active or inactive are those of the source. Unless noted, the calls are words filed in the database; no cut-off is given here.

Assays:
[1] = test system: Escherichia coli; test: Antibacterial activity against Escherichia coli SG 458; format: functional, organism-based
[2] = test system: Proteus vulgaris; test: Antibacterial activity against Proteus vulgaris OX 19; format: functional, organism-based
[3] = test system: Mycolicibacterium smegmatis; test: Antimycobacterial activity against Mycobacterium smegmatis SG 987; format: functional, organism-based
[4] = test system: Mycolicibacterium aurum; test: Antimycobacterial activity against Mycobacterium aurum SB 66; format: functional, organism-based
[5] = test system: Mycolicibacterium aurum; test: Antimycobacterial activity against Mycobacterium aurum DSM 43536; format: functional, organism-based
[6] = test system: Mycolicibacterium vaccae; test: Antimycobacterial activity against Mycobacterium vaccae 10670; format: functional, organism-based
[7] = test system: Mycolicibacterium fortuitum; test: Antimycobacterial activity against Mycobacterium fortuitum B; format: functional, organism-based
[8] = test system: Sporobolomyces salmonicolor; test: Antimicrobial activity against Sporobolomyces salmonicolor SBUG 549; format: functional, organism-based
[9] = test system: Candida albicans; test: Antifungal activity against Candida albicans; format: functional, organism-based
[10] = test system: Colletotrichum; test: Antifungal activity against Glomerella; format: functional, organism-based
[11] = test system: Mycobacterium avium; test: Antimycobacterial activity against Mycobacterium avium MAC 100; format: functional, organism-based
[12] = test system: Mycobacterium avium; test: Antimycobacterial activity against Mycobacterium avium MAC 101; format: functional, organism-based
[13] = test system: Mycobacterium avium; test: Antimycobacterial activity against Mycobacterium avium MAC 108; format: functional, organism-based
[14] = test system: Mycobacterium avium; test: Antimycobacterial activity against Mycobacterium avium MAC 109; format: functional, organism-based
[15] = test system: Mycobacterium avium; test: Antimycobacterial activity against Mycobacterium avium MAC 116; format: functional, organism-based
[16] = test system: Mycolicibacterium vaccae; test: Antimycobacterial activity against Mycobacterium vaccae 10670 by agar diffusion assay; format: functional, organism-based
[17] = test system: Mycolicibacterium fortuitum; test: Antimycobacterial activity against Mycobacterium fortuitum B by agar diffusion assay; format: functional, organism-based
[18] = test system: Mus musculus; test: Toxicity in mouse assessed as change in body weight at 100 mg/kg, po qd for 5 days followed by 2 days rest and 200 mg/kg, po qd for 5 days; format: organism-based; conditions: in vivo
[19] = test system: Mus musculus; test: Toxicity in mouse assessed as change in gross appearance at 100 mg/kg, po qd for 5 days followed by 2 days rest and 200 mg/kg, po qd for 5 days; format: organism-based; conditions: in vivo
[20] = test system: Mus musculus; test: Toxicity in mouse assessed as behavioral change at 100 mg/kg, po qd for 5 days followed by 2 days rest and 200 mg/kg, po qd for 5 days; format: organism-based; conditions: in vivo
[21] = test system: Mycobacterium tuberculosis; test: Antimycobacterial activity against Mycobacterium tuberculosis Erdman infected in BALB/c mouse assessed as reduction of bacterial load at 200 mg/kg, po qd for 5 days per week administered 60 days after infection measured after 85 days post infection; format: functional, organism-based; design: dose 200 mg/kg
[22] = Chemical stability in simulated gastric fluid assessed as compound remaining after 2 hrs by HPLC analysis; format: physicochemical; conditions: simulated gi fluid
[23] = test system: Liver microsomes; test: Metabolic stability in Sprague-Dawley rat microsomes assessed as compound remaining after 15 mins by HPLC analysis; format: ADME, Microsome; conditions: 0.25 h
[24] = test system: Mycobacterium tuberculosis; test: Antimycobacterial activity against Mycobacterium tuberculosis H37Rv ATCC 27294 in GAS medium after 1 week by microplate alamar blue assay; format: functional; conditions: H37Rv ATCC 27294, 168 h
[25] = test system: Mycobacterium tuberculosis; test: Antimycobacterial activity against Mycobacterium tuberculosis H37Rv ATCC 27294 in GAST medium after 1 week by microplate alamar blue assay; format: functional; conditions: H37Rv ATCC 27294, 168 h
[26] = test system: Vero; test: Cytotoxicity against african green monkey Vero cells by colorimetric assay; format: cell-based; conditions: Chlorocebus sabaeus
[27] = test system: Mycobacterium tuberculosis; test: Antimycobacterial activity against Mycobacterium tuberculosis H37Rv ATCC 27294 incubated 10 days under anaerobic condition measured after 24 hrs recovery in air by luciferase based low oxygen recovery assay; format: functional
[28] = test system: Bacillus subtilis; test: Antibacterial activity against Bacillus subtilis ATCC 6633; format: functional, organism-based
[29] = test system: Staphylococcus aureus; test: Antibacterial activity against Staphylococcus aureus SG 511; format: functional, organism-based
[30] = test system: Micrococcus luteus; test: Antibacterial activity against Micrococcus luteus ATCC 10240; format: functional, organism-based

Row | Structure (SMILES) | Activity [1] | Activity [2] | Activity [3] | Activity [4] | Activity [5] | Activity [6] | Activity [7] | Activity [8] | Activity [9] | Activity [10] | Activity [11] | Activity [12] | Activity [13] | Activity [14] | Activity [15] | Activity [21] | MIC [24] [µM] | MIC [25] [µM] | IC50 [26] [µM] | MIC [27] [µM] | other results
1 | O=C(OCc1ccccc1)[C@@H]1COC(c2ccc(F)c([N+](=O)[O-])c2)=N1 | inactive | inactive | inactive | inactive | inactive | inactive | inactive | inactive | inactive | inactive | inactive | inactive | inactive | inactive | inactive | inactive | 6.24 (≈ 2.15 µg/mL) | 0.95 (≈ 0.327 µg/mL) | > 128 | 26 (≈ 8.95 µg/mL) | Activity [16]: Active; Activity [17]: Active; Activity [18]: Non-toxic; Activity [19]: Non-toxic; Activity [20]: Non-toxic; Stability [22]: 2.2%; Stability [23]: 13%; Activity [28]: inactive; Activity [29]: inactive; Activity [30]: inactive
2 | O=C(OCc1ccccc1)[C@@H]1COC(c2ccccc2)=N1 | inactive | inactive | inactive | inactive | inactive | inactive | inactive | inactive | inactive | inactive | inactive | inactive | inactive | inactive | inactive | inactive | 7.2 (≈ 2.03 µg/mL) | 4.42 (≈ 1.24 µg/mL) | > 128 | 63 (≈ 17.7 µg/mL) | Activity [16]: inactive; Activity [17]: Active; Activity [18]: Non-toxic; Activity [19]: Non-toxic; Activity [20]: Non-toxic; Stability [22]: 0.4%; Stability [23]: 5.7%; Activity [28]: inactive; Activity [29]: inactive; Activity [30]: inactive
3 | COc1ccc(-c2nc(C(=O)OCc3ccccc3)co2)cc1 | inactive | inactive | inactive | inactive | inactive | inactive | inactive | inactive | inactive | inactive | inactive | inactive | inactive | inactive | inactive | inactive | 1.72 (≈ 0.532 µg/mL) | 1.8 (≈ 0.557 µg/mL) | > 128 | – | Activity [16]: Active; Activity [17]: Active; Activity [18]: Non-toxic; Activity [19]: Non-toxic; Activity [20]: Non-toxic; Stability [22]: 0.4%; Stability [23]: 14%; Activity [28]: inactive; Activity [29]: inactive; Activity [30]: inactive
4 | O=C(OCc1ccccc1)c1coc(-c2ccccc2)n1 | inactive | inactive | inactive | inactive | inactive | inactive | inactive | inactive | inactive | inactive | inactive | inactive | inactive | inactive | inactive | inactive | 0.47 (≈ 0.131 µg/mL) | 0.49 (≈ 0.137 µg/mL) | 121 | 3.8 (≈ 1.06 µg/mL) | Activity [16]: Active; Activity [17]: Active; Activity [18]: Non-toxic; Activity [19]: Non-toxic; Activity [20]: Non-toxic; Stability [22]: 0.5%; Stability [23]: 15%; Activity [28]: inactive; Activity [29]: inactive; Activity [30]: inactive
5 | O=C(OCc1ccccc1)[C@@H]1COC(c2ccc([N+](=O)[O-])c(F)c2)=N1 | – | – | – | – | – | – | – | – | – | – | – | – | – | – | – | inactive | 30.2 (≈ 10.4 µg/mL) | 3.68 (≈ 1.27 µg/mL) | > 128 | 59 (≈ 20.3 µg/mL) | –
6 | O=C(OCc1ccccc1)c1coc(-c2ccccc2OCc2ccccc2)n1 | inactive | inactive | inactive | inactive | inactive | inactive | inactive | inactive | inactive | inactive | inactive | inactive | inactive | inactive | inactive | inactive | 62.6 (≈ 24.1 µg/mL) | 10.3 (≈ 3.97 µg/mL) | > 128 | – | Activity [16]: Active; Activity [17]: Active; Activity [18]: Non-toxic; Activity [19]: Non-toxic; Activity [20]: Non-toxic; Stability [22]: 4.2%; Stability [23]: 13%; Activity [28]: inactive; Activity [29]: inactive; Activity [30]: inactive
7 | O=C(OCc1ccccc1)c1coc(-c2ccc([N+](=O)[O-])cc2F)n1 | – | – | – | – | – | – | – | – | – | – | – | – | – | – | – | inactive | 0.7 (≈ 0.24 µg/mL) | 1.65 (≈ 0.565 µg/mL) | > 128 | 11.6 (≈ 3.97 µg/mL) | –
8 | O=C(OCc1ccccc1)c1coc(-c2ccc(Br)nc2)n1 | – | – | – | – | – | – | – | – | – | – | – | – | – | – | – | inactive | 2.54 (≈ 0.912 µg/mL) | 1.84 (≈ 0.661 µg/mL) | > 128 | 25.1 (≈ 9.02 µg/mL) | –
9 | Nc1ccc(-c2nc(C(=O)OCc3ccccc3)co2)cc1 | – | – | – | – | – | – | – | – | – | – | – | – | – | – | – | inactive | 1.98 (≈ 0.583 µg/mL) | 3.67 (≈ 1.08 µg/mL) | > 128 | 68.6 (≈ 20.2 µg/mL) | –
10 | O=C(OCc1ccccc1)c1coc(-c2ccc(Cl)cc2)n1 | – | – | – | – | – | – | – | – | – | – | – | – | – | – | – | inactive | 18.9 (≈ 5.93 µg/mL) | 7.77 (≈ 2.44 µg/mL) | > 128 | 56.2 (≈ 17.6 µg/mL) | –
